From patent US6107489A, “Extended lifetimes in vivo renin inhibitors” (ConjuChem, Inc., priority 1999, dated 2000)
Where two headings read alike, the source gives them in different places.

Assays:
renin [1] = target: T1, renin (Homo sapiens, UniProt P00797); test: renin inhibition IC50; assay type: biochemical
T1 sequence (P00797 67-406): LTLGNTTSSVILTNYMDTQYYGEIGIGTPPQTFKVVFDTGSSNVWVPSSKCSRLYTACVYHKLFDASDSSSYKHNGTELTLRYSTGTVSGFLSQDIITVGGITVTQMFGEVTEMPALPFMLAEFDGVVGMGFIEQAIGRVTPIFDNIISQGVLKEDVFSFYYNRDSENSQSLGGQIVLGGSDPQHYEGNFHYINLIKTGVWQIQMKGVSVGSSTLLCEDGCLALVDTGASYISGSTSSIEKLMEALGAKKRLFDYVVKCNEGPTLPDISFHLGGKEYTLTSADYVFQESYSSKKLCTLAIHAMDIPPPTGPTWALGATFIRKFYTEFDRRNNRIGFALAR

renin [2] = assay type: in vivo, rabbit; settings: for Corrected % Inhibition: normalized for dilution
Method: Materials and Methods: The following procedures were done under sterile conditions. Rabbit plasma was obtained from freshly drawn heparinized blood. One 8 mL aliquot of plasma was incubated with 5 micromoles of YS-004-69 (15) (the NHS ester; "NHS-RI") for 60 minutes at room temperature. Another equal aliquot was similarly incubated with 5 micromoles of YS-004-65 (free acid; "Free RI"). The reaction mixtures were stored at 4° C. overnight. Aliquots of these samples were saved for analysis of total renin inhibitor content by a standard renin radioimmunoassay (RIA). After warming to 37° C., the plasma samples were injected into two autologous rabbits. The rabbits were then bled at defined intervals. The blood was centrifuged for 5 minutes at 2500 rpm and then aliquots of the plasma were analyzed by RIA. Results: Plasma proteins derivatized with the NHS ester of the renin inhibitor did indeed maintain the inhibitor in a conformation which remained bioavailable and inhibitory after an extended period of circulation in the blood. […] Again, the amount of inhibitor detectable has been normalized for the effect of dilution of the plasma by the volume of blood in circulation. "ND" means this measurement was not determined.

CC[C@H](C)CNC(=O)C[C@H](O)[C@H](CC1CCCCC1)NC(=O)[C@H](Cc1c[nH]cn1)NC(=O)[C@H](Cc1ccccc1)NC(=O)OC(C)(C)C [parent renin inhibitor, reference compound]
IC50 (renin [1]): 4 to 19 nM

Boc-Phe-His-ACHPA-IIe-6-AC-NHS [YS-004-69]
Crude % Inhibition (renin [2]; 10 min after injection): 97.70%
Corrected % Inhibition (renin [2]; 10 min after injection): 100.00%
Crude % Inhibition (renin [2]; 30 min after injection): 87.40%
Corrected % Inhibition (renin [2]; 30 min after injection): 89.46%
Crude % Inhibition (renin [2]; 1 hour after injection): 85.90%
Corrected % Inhibition (renin [2]; 1 hour after injection): 87.92%
Crude % Inhibition (renin [2]; 4 hours after injection): 87.40%
Corrected % Inhibition (renin [2]; 4 hours after injection): 99.69%
Crude % Inhibition (renin [2]; 6 hours after injection): 88.20%
Corrected % Inhibition (renin [2]; 6 hours after injection): 100.51%
Crude % Inhibition (renin [2]; 8 hours after injection): 70.50%
Corrected % Inhibition (renin [2]; 8 hours after injection): 72.16%
Crude % Inhibition (renin [2]; 1 day after injection): 75.10%
Corrected % Inhibition (renin [2]; 1 day after injection): 76.87%
Crude % Inhibition (renin [2]; 2 days after injection): 68.10%
Corrected % Inhibition (renin [2]; 2 days after injection): 69.70%
Crude % Inhibition (renin [2]; 3 days after injection): 75.80%
Corrected % Inhibition (renin [2]; 3 days after injection): 77.38%
Crude % Inhibition (renin [2]; 6 days after injection): 55.30%
Corrected % Inhibition (renin [2]; 6 days after injection): 56.60%
Crude % Inhibition (renin [2]; 10 days after injection): 41.20%
Corrected % Inhibition (renin [2]; 10 days after injection): 42.17%

CC[C@H](C)[C@H](NC(=O)C[C@H](O)[C@H](CC1CCCCC1)NC(=O)[C@H](Cc1c[nH]cn1)NC(=O)[C@H](Cc1ccccc1)NC(=O)OC(C)(C)C)C(=O)NCCCCCC(=O)O [YS-004-65, Boc-Phe-His-ACHPA-IIe-6-AC-OH]
Crude % Inhibition (renin [2]; 10 min after injection): 89.40%
Corrected % Inhibition (renin [2]; 10 min after injection): 100.00%
Crude % Inhibition (renin [2]; 30 min after injection): 20.60%
Corrected % Inhibition (renin [2]; 30 min after injection): 23.04%
Crude % Inhibition (renin [2]; 1 hour after injection): -2.80%
Corrected % Inhibition (renin [2]; 1 hour after injection): -3.13%
Crude % Inhibition (renin [2]; 4 hours after injection): -5.20%
Corrected % Inhibition (renin [2]; 4 hours after injection): -5.82%
Crude % Inhibition (renin [2]; 6 hours after injection): -0.40%
Corrected % Inhibition (renin [2]; 6 hours after injection): -0.45%
Crude % Inhibition (renin [2]; 8 hours after injection): -2.90%
Corrected % Inhibition (renin [2]; 8 hours after injection): -3.24%
Crude % Inhibition (renin [2]; 1 day after injection): -5.20%
Corrected % Inhibition (renin [2]; 1 day after injection): -5.82%
Crude % Inhibition (renin [2]; 2 days after injection): -3.20%
Corrected % Inhibition (renin [2]; 2 days after injection): -3.58%
Crude % Inhibition (renin [2]; 3 days after injection): 1.40%
Corrected % Inhibition (renin [2]; 3 days after injection): 1.57%
Corrected % Inhibition (renin [2]; 6 days after injection): 0.00%
Crude % Inhibition (renin [2]; 10 days after injection): -6.60%
Corrected % Inhibition (renin [2]; 10 days after injection): -7.38%
level of renin inhibitor / inhibition in plasma over time (renin [2]; rabbit, in vivo): not detectable after one hour
IC50 (renin [1]): 50 nM
